Experimental data taken from article PMC3986399, “Discovery of Novel Allosteric Effectors Based on the Predicted Allosteric Sites for Escherichia coli D-3-Phosphoglycerate Dehydrogenase” (PLoS ONE, 2014).
“Also recorded” adds a separate entry of the source. Where two headings read alike, the source gives them in different places.

Tests used:
E. coli PGDH (wild type) = target: T1, E. coli PGDH (wild type) (Escherichia coli, UniProt P0A9T0); assay: PGDH enzyme assay (NADH fluorescence, α-ketoglutarate substrate), wild type; assay type: biochemical; settings: for inhibition at 50 µM: compound 50 µM; for maximum enzyme activity (residual activity, activation): low compound concentration, >100% = activation
T1 construct: The PGDH coding region was ligated into the pET21a(+) vector; made in house; host or cells: E. coli BL21 (DE3)
Experimental: (§1) To evaluate the effects of compounds on PGDH activity, compounds were first examined to have no fluorescence absorption at 456 nm, and then pre-incubated with enzyme samples in the assay buffer (20 mM tris-(hydroxymethyl) aminomethane hydrochloride (Tris-HCl), pH 7.5, 1 mM DTT, 1 mM EDTA, and 0.25 mM NADH) for 6 min at 25°C. […] Fluorescence signals were recorded for 3 min with a kinetics mode program. The cofactor concentration in the assay buffer was 0.25 mM and the substrate concentration was 5 mM [28]. IC50 or AC50 values were obtained by fitting the data to a three-parameter Hill model of the graph of log dose against percentage inhibition or activation from at least three sets of experiments. Percentages of inhibition or activation were calculated according to the following equation: [drawing 1] in which Vo and Vi represent the maximum reaction rate of the enzyme incubated without or with compounds and Vn represents the maximum degradation rate of NADH.

PGDH [1] = target: T2, PGDH (Escherichia coli, UniProt P0A9T0); assay: Compound-substrate competition experiments; assay type: biochemical; settings: for competition with the substrate: constant compound concentration, increasing α-ketoglutarate; for inhibition at 50 µM: substrate increased from 156 µM to 10 mM, compound 50 µM, read-out: percentage of inhibition with increasing substrate
T2 construct: The PGDH coding region was ligated into the pET21a(+) vector; made in house; host or cells: E. coli BL21 (DE3)
Experimental: To investigate competition effects between the compounds and the substrate α-ketoglutarate, we performed compound-substrate competition experiments as follows:
Before α-ketoglutarate was added to start the reaction, the enzyme sample was pre-incubated with the cofactor and the compound for 6 min at 25°C. […] The cofactor NADH concentration was kept constant at 0.25 mM. […]
Serine-compound competition experiment […]
Competition experiments for analogs and the substrate
1-3 were kept at 92, 100, and 120 μM, while gradually increasing the substrate
concentration from 78 μM to 625 μM. […]

PGDH (WT) = target: T3, PGDH (WT) (Escherichia coli, UniProt P0A9T0); assay: SPR direct binding to immobilized PGDH
T3 construct: The PGDH coding region was ligated into the pET21a(+) vector; made in house; host or cells: E. coli BL21 (DE3)
Experimental: (§2) PGDH and its mutants were immobilized on a CM5 sensor chip by using standard amine-coupling at 25°C with running buffer HBS-P (20 mM […], 0.05% surfactant P-20, pH 7.4), respectively. […] A reference flow cell was activated and blocked in the absence of PGDH. […] Regeneration was achieved by extended washing with the running buffer after each sample injection. […] In the binding site verification SPR experiments, the sensor chip surface was immobilized with WT PGDH and its mutants to a RU of 4000, respectively. The analytes, compounds 1 and 2, were injected over the chip at a fixed concentration of 50 and 25 µM, respectively.

PGDH mutant E129AK256A [2] = target: T4, PGDH mutant E129AK256A (Escherichia coli, UniProt P0A9T0, E129A/K256A); assay: SPR binding site verification, site I mutant E129AK256A; settings: compound 1 at 50 µM, compound 2 at 25 µM
T4 construct: The PGDH coding region was ligated into the pET21a(+) vector; made in house; host or cells: E. coli BL21 (DE3)
Experimental: as §2
(§3) We also tested whether compounds 1 and 2 might interact with the other allosteric site (site II) we discovered before. The key binding residue in site II, Y410 was mutated to A. The binding of these two compounds with the wild type enzyme, Y410A, and two site I mutants (F147A, E129AK256A) were tested using SPR direct binding assay. The immobilization levels for WT, Y410A, F147A and E129AK256A were kept almost the same (3506, 3792, 3756 and 3600 RU, respectively) and the concentrations of compounds 1 and 2 were kept at 50 µM and 25 µM. […] This verified that both compounds 1 and 2 bind specifically to the site I as designed.

PGDH mutant E129A = target: T5, PGDH mutant E129A (Escherichia coli, UniProt P0A9T0, E129A); assay: PGDH enzyme assay, mutant E129A; assay type: biochemical
T5 construct: The PGDH coding region was ligated into the pET21a(+) vector; made in house; host or cells: E. coli BL21 (DE3)
Experimental: as §1
(§4) All mutagenesis experiments were carried out according to the instructions of the QuikChange site-directed mutagenesis (Stratagene). The plasmid pET-21a(+)-containing wild-type (WT) PGDH was mutated to obtain the mutants E129A, S146A, F147A, K256A, K152AK230A, and E129AK256A. The DNA sequences of all mutants were verified by DNA sequencing. […]

PGDH mutant F147A [3] = target: T6, PGDH mutant F147A (Escherichia coli, UniProt P0A9T0, F147A); assay: PGDH enzyme assay, mutant F147A; assay type: biochemical
T6 construct: The PGDH coding region was ligated into the pET21a(+) vector; made in house; host or cells: E. coli BL21 (DE3)
Experimental: as §1, §4

PGDH mutant F147A [4] = target: T6, PGDH mutant F147A; assay: SPR binding site verification, site I mutant F147A; settings: compound 1 at 50 µM, compound 2 at 25 µM
Experimental: as §2, §3

PGDH [5] = target: T2, PGDH; assay: Serine-compound competition experiment; assay type: biochemical; settings: compound 40 µM; serine 1.6 to 200 µM
Experimental: Serine-compound competition experiment
Serine-compound competition experiments were did like that for compound-substrate experiments, before the reaction was started, the enzyme was pre-incubated with the mixture of serine and compound for 6 minutes. During this process, compound was kept at a constant inhibitory concentration, and the serine concentrations were changed from 1.6 to 200
μM. The concentrations of compounds 1 and 2 were selected as 40 μM. […]

PGDH mutant E129AK256A [6] = target: T4, PGDH mutant E129AK256A; assay: PGDH enzyme assay, mutant E129AK256A; assay type: biochemical
Experimental: as §1, §4

PGDH [7] = target: T2, PGDH; assay: Enzyme kinetic analysis (Michaelis-Menten); assay type: biochemical; settings: compound 0 to 120 µM
Experimental: As in the competition experiments, enzyme reaction velocity vs. substrate relationships were measured at various compound concentrations. The compound concentrations used were 120, 80, 40, 24, 8, 4.8, 1.6, and 0.32 µM.
To evaluate the effects of the compounds on enzyme kinetics, Michaelis-Menten plots of PGDH incubated with different concentrations of compounds were measured. The apparent kinetic parameters kcat and Km were estimated by non-linear curve-fitting using Graphpad Prism 5.0 software, and their values are shown in Figure 6. […] The kcat of the pure enzyme was about 2.6 s^−1, which was in between the kcat values of the enzyme at the molecular concentrations of 8 µM and 24 µM.

PGDH mutant K256A = target: T7, PGDH mutant K256A (Escherichia coli, UniProt P0A9T0, K256A); assay: PGDH enzyme assay, mutant K256A; assay type: biochemical
T7 construct: The PGDH coding region was ligated into the pET21a(+) vector; made in house; host or cells: E. coli BL21 (DE3)
Experimental: as §1, §4

PGDH mutant Y410A = target: T8, PGDH mutant Y410A (Escherichia coli, UniProt P0A9T0, Y410A); assay: SPR binding site verification, site II mutant Y410A; settings: compound 1 at 50 µM, compound 2 at 25 µM
T8 construct: The PGDH coding region was ligated into the pET21a(+) vector; made in house
Experimental: as §2, §3

PGDH mutant S146A = target: T9, PGDH mutant S146A (Escherichia coli, UniProt P0A9T0, S146A); assay: PGDH enzyme assay, mutant S146A; assay type: biochemical
T9 construct: The PGDH coding region was ligated into the pET21a(+) vector; made in house; host or cells: E. coli BL21 (DE3)
Experimental: as §1, §4

PGDH mutant K152AK230A = target: T10, PGDH mutant K152AK230A (Escherichia coli, UniProt P0A9T0, K152A/K230A); assay: PGDH enzyme assay, mutant K152AK230A; assay type: biochemical
T10 construct: The PGDH coding region was ligated into the pET21a(+) vector; made in house; host or cells: E. coli BL21 (DE3)
Experimental: as §1, §4

PGDH from pea = settings: PGDH from peas, cited from earlier work
[8] = wild type PGDH, substrate 5 mM, NADH 0.25 mM, read-out: IC50

SMILES | IC50 (E. coli PGDH (wild type); [8]) [µM] | competition with the substrate (PGDH [1]) | compound binding ability to E129AK256A versus WT (PGDH mutant E129AK256A [2]) | inhibition at 50 µM (E. coli PGDH (wild type); substrate 5 mM) [%] | maximum enzyme activity (residual activity, activation) (E. coli PGDH (wild type); substrate 5 mM) | concentration above which the compound is an inhibitor (E. coli PGDH (wild type); substrate 5 mM) | inhibition at 50 µM (PGDH [1]) [%] | IC50 (PGDH mutant F147A [3]) [µM] | compound binding ability to F147A versus WT (PGDH mutant F147A [4]) | influence on the inhibitory ability of serine (PGDH [5]) | effect on Km / substrate affinity of the enzyme (PGDH [7]) | compound binding ability to Y410A versus WT (PGDH mutant Y410A) | also measured
Cc1ccccc1C(=O)Nc1ccccc1C(=O)N/N=C/c1ccccc1OCc1ccccc1[N+](=O)[O-] [Compound 3] | 131 ± 12 | percentage inhibition did not change | – | – | – | – | – | – | – | – | – | – | inhibition at 130 µM (E. coli PGDH (wild type); compound 130 µM, substrate 5 mM): ~50%; maximal inhibition rate (E. coli PGDH (wild type); partial dose-inhibition curve due to solubility restriction): 61.9%; SPR binding ability (PGDH (WT); no reliable KD obtained): weak binding ability
Cc1ccc(N2NC(=O)/C(=C/c3ccc(-c4ccc(S(=O)(=O)Nc5nccs5)cc4)o3)C2=O)cc1C [Compound 2] | 58 ± 9 | do not competitively bind to the same site | a large decrease in compound binding ability | ~50 | 163% | above 1.6 µM | 20 to 50 | 158 ± 22 | a large decrease in compound binding ability | no significant effect; also recorded: not significantly influenced | enhanced the substrate affinity for the enzyme | retained the same extent of compound binding ability as WT | AC50 (E. coli PGDH (wild type); fit of activation dose response curve, substrate 5 mM): 0.0347 µM; concentration at which activation starts (E. coli PGDH (wild type); substrate 5 mM): about 2 nM; concentration of highest activation (E. coli PGDH (wild type); substrate 5 mM): about 64 nM; IC50 (PGDH mutant E129A): 99 ± 13 µM; IC50 (PGDH mutant E129AK256A [6]): > 200 µM; IC50 (PGDH mutant K256A): > 200 µM; Kd (PGDH (WT); SPR, 1:1 Langmuir binding model, PGDH 800 RU, read-out: KD): 19 ± 1.9 µM
O=C1NC(=S)NC(=O)C1=Cc1ccc(OC(=O)c2ccc3nc(-c4ccccc4)c(-c4ccccc4)nc3c2)cc1 [Compound 1] | – | do not competitively bind to the same site | a large decrease in compound binding ability | ~50 | about 140% | > 16 µM | 20 to 50 | 181 ± 26 | a large decrease in compound binding ability | no significant effect; also recorded: not significantly influenced | enhanced the substrate affinity for the enzyme | retained the same extent of compound binding ability as WT | IC50 (E. coli PGDH (wild type)): 34.8 ± 1.3 µM; IC50 (PGDH mutant S146A): 175 ± 88 µM; IC50 (PGDH mutant K152AK230A): > 200 µM; Kd (PGDH (WT)): 42.6 ± 2.1 µM
CSCC[C@H](N)C(=O)O [L-methionine] | – | – | – | – | – | – | – | – | – | – | – | – | increase in enzyme activity (PGDH from pea; at maximal activation): four- to five; concentration of maximal activation (PGDH from pea): 10 mM
